Laboratory results reported in patent publication US20090131469A1, “PHARMACEUTICAL AGENT COMPRISING SOLIFENACIN” (ASTELLAS PHARMA INC., priority 2005, published 2009).
Where a name gives a salt, the structure may show the parent alone.

Legend:
[1] = tested on: rat model of pollakiuria associated with neurogenic bladder due to cerebral infarction; experiment: Rat model of pollakiuria due to cerebral infarction (cystometry); assay type: in vivo; details: male SD rats with cerebral infarction; intravenous administration; 30 minutes after drug administration
Protocol: Male SD rats (270 g to 320 g) were used for the test. After the rats were anesthetized with pentobarbital (50 mg/kg), a vesical fistula cannula and a cannula for drug administration were inserted and indwelled in the bladder and the jugular vein, respectively. A cannula was also inserted and indwelled in the common carotid vein for drug administration. Cerebral infarction was prepared according to the method of Longa et al. (Stroke, 1989, vol. 20, p. 84-91) 2 to 3 days after the surgery. Under halothane anesthesia, the cervical part was incised and a nylon thread was inserted from the common carotid artery to the internal carotid artery and the tip of the thread was carried forward to the origin of the middle cerebral artery and indwelled to induce cerebral ischemia. On the next day, neurological symptoms were observed and scored according to the method of Garcia, et al. (Stroke, 1995, Vol. 26, p. […]) and rats having moderate or more severe symptoms (with a score of 13 or less) were selected.
After awakening from anesthesia, the rats were maintained in Bollman cages. The vesical fistula cannula was connected to a syringe pump via a three-way stopcock and physiological saline was continuously infused into the bladder to induce micturition reflex. Another end of the three-way stopcock was connected to a pressure transducer to measure intravesical pressure. After stabilization of micturition reflex, the test drug was administered through the catheter for drug dose inserted in the external carotid vein.
The volume of physiological saline required to induce a single micturition reflex at 30 minutes after drug administration, that is, bladder capacity and the voided volume per micturition were measured. The results are shown as mean±standard error.
The Student's t-test was used for a comparison between the sham surgery group and the cerebral infarction group and the Dunnett's multiple comparison test was used for a comparison between the group receiving drug administration and the group not receiving drug administration in the cerebral infarction group.

[2] = tested on: patients with neurogenic bladder; experiment: Clinical study of urinary urgency, pollakiuria and urinary incontinence: patients with neurogenic bladder; assay type: in vivo, human; details: for improving effect on pollakiuria (in words) / improving effect on urinary incontinence (in words) / improving effect on urinary urgency (in words): solifenacin succinate 5 mg and 10 mg (Groups S5, S10), propiverine hydrochloride 20 mg (Group B), oral once daily for 12 weeks
Protocol: (§1) A clinical study was conducted in patients with urinary urgency, pollakiuria and urinary incontinence under the conditions described below. The causes of urinary urgency, pollakiuria and urinary incontinence were separated into neurogenic bladder (due to cerebral infarction or brain disorder due to brain contusion, peripheral neuropathy, and spinal cord disorder due to cervical or lumbar spondylosis, spondylitis deformans, cervical or lumbar spondylolisthesis, disk herniation, spinal stenosis and the like) and unstable bladder (without accompanying neurological diseases, urinary tract infections and calculi, irradiation history to the lumbar part and tumors in the pelvic organs that can be causal disease of detrussor hyperactivity) and analyses were done.
(§2) Male and female patients aged 20 years or older who presented symptoms of urinary urgency, pollakiuria and urinary incontinence for 6 months or a longer period, the number of micturition per 24 hours was 8 on average or higher and satisfied at least one of the following conditions (1) and (2):
(§3) (1) Having at least one episode of urge urinary incontinence per 24 hours on average (2) Having at least one episode of urinary urgency per 24 hours on average. Patients with stress urinary incontinence, psychogenic pollakiuria and the like were excluded. In addition, patients with complication of urinary tract infection, urinary calculi, interstitial cystitis, bladder tumor and the like were also excluded.
(§4) Group P: Placebo (Sham drug) Group S5: 5 mg of solifenacin succinate (corresponding to 3.8 mg of solifenacin calculated as a free base) Group S10: 10 mg of solifenacin succinate (corresponding to 7.5 mg of solifenacin calculated as a free base) Group B: 20 mg of propiverine hydrochloride
(§5) All the groups received oral administration once daily for 12 weeks.

[3] = tested on: patients with unstable bladder; experiment: Clinical study of urinary urgency, pollakiuria and urinary incontinence: patients with unstable bladder; assay type: in vivo, human
Protocol: as §1, §2, §3, §4, §5

[4] = Group B: 20 mg oral once daily for 12 weeks
[5] = Group S5: 5 mg oral once daily for 12 weeks
[6] = Group S10: 10 mg oral once daily for 12 weeks

CCCOC(C(=O)OC1CCN(C)CC1)(c1ccccc1)c1ccccc1 [propiverine hydrochloride, reference compound]
doses that increased the bladder capacity [1]: ≥ 1 mg/kg
doses that increased the voided volume [1]: ≥ 0.3 mg/kg
Difference of change in the number of micturitions from that in Group P [2, 4]: +0.23
Difference of change in the number of urinary incontinence episodes from that in Group P [2, 4]: −1.01
Difference of change in the number of urinary urgency episodes from that in Group P [2, 4]: +0.18
Mean change in the number of micturitions [2, 4]: −1.25
Mean change in the number of urinary incontinence episodes [2, 4]: −1.62
Mean change in the number of urinary urgency episodes [2, 4]: −1.65
improving effect on pollakiuria (in words) [2]: no improving effect on pollakiuria was observed
improving effect on urinary incontinence (in words) [2]: improved urinary incontinence
improving effect on urinary urgency (in words) [2]: improving effect on urinary urgency was not observed
Difference of change in the number of micturitions from that in Group P [3, 4]: −0.99
Difference of change in the number of urinary incontinence episodes from that in Group P [3, 4]: −0.50
Difference of change in the number of urinary urgency episodes from that in Group P [3, 4]: −1.08
Mean change in the number of micturitions [3, 4]: −1.90
Mean change in the number of urinary incontinence episodes [3, 4]: −1.23
Mean change in the number of urinary urgency episodes [3, 4]: −2.33

O=C(O[C@H]1CN2CCC1CC2)N1CCc2ccccc2[C@@H]1c1ccccc1 [solifenacin succinate, (3R)-quinuclidin-3-yl (1S)-1-phenyl-1,2,3,4-tetrahydroisoquinoline-2-carboxylate]
doses that increased the bladder capacity [1]: ≥ 0.03 mg/kg
doses that increased the voided volume [1]: ≥ 0.03 mg/kg
Difference of change in the number of micturitions from that in Group P [2, 5]: −0.56
Difference of change in the number of urinary incontinence episodes from that in Group P [2, 5]: −1.19
Difference of change in the number of urinary urgency episodes from that in Group P [2, 5]: −1.03
Mean change in the number of micturitions [2, 5]: −2.04
Mean change in the number of urinary incontinence episodes [2, 5]: −1.80
Mean change in the number of urinary urgency episodes [2, 5]: −2.86
Difference of change in the number of micturitions from that in Group P [2, 6]: −1.11
Difference of change in the number of urinary incontinence episodes from that in Group P [2, 6]: −0.79
Difference of change in the number of urinary urgency episodes from that in Group P [2, 6]: −0.60
Mean change in the number of micturitions [2, 6]: −2.59
Mean change in the number of urinary incontinence episodes [2, 6]: −1.40
Mean change in the number of urinary urgency episodes [2, 6]: −2.43
improving effect on pollakiuria (in words) [2]: improving effect on pollakiuria was observed
improving effect on urinary incontinence (in words) [2]: improve all the symptoms of urinary urgency, pollakiuria and urinary incontinence
improving effect on urinary urgency (in words) [2]: improving effect on urinary urgency was observed
Difference of change in the number of micturitions from that in Group P [3, 5]: −1.02
Difference of change in the number of urinary incontinence episodes from that in Group P [3, 5]: −0.85
Difference of change in the number of urinary urgency episodes from that in Group P [3, 5]: −1.13
Mean change in the number of micturitions [3, 5]: −1.93
Mean change in the number of urinary incontinence episodes [3, 5]: −1.58
Mean change in the number of urinary urgency episodes [3, 5]: −2.38
Difference of change in the number of micturitions from that in Group P [3, 6]: −1.26
Difference of change in the number of urinary incontinence episodes from that in Group P [3, 6]: −0.88
Difference of change in the number of urinary urgency episodes from that in Group P [3, 6]: −1.56
Mean change in the number of micturitions [3, 6]: −2.17
Mean change in the number of urinary incontinence episodes [3, 6]: −1.61
Mean change in the number of urinary urgency episodes [3, 6]: −2.81
